The results in this text go back to US20220226298A1, “GPR40 AGONISTS” (Kallyope, Inc., priority 2019, published 2022).

The target of this test is T1, human GPR40 (Homo sapiens, UniProt O14842).
T1 construct: host or cells: CHO-K1
T1 sequence (O14842 whole entry): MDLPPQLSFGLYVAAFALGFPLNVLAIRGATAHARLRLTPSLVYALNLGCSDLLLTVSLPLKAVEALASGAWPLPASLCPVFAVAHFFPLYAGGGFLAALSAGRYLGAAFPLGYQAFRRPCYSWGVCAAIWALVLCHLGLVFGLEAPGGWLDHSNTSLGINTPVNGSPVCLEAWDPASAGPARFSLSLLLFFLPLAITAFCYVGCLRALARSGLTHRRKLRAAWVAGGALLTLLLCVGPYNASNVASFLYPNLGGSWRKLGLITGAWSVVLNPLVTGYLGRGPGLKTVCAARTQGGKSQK
Nature of the test: Inositol phosphate accumulation assay (IP1 HTRF) in CHO-K1 cells expressing human GPR40. Type of test: cell-based. The note with it: 90 min stimulation. On the procedure:
CHO-KI cells expressing human GPR40 were purchased from DiscoverX (95-1005C2). HEK293 cells expressing mouse FFAR1 were prepared using a mouse FFAR1 carrying plasmid purchased from OriGene Technologies (MR222997). The cells were transfected using Lipofectamine 2000 using manufacturer instructions and stable cell line was established from a single cell using geneticine selection. Assay ready frozen (ARF) cells were prepared and used throughout the study.
The assay was performed in a 384-well plate format using IP1 assay kit from Cis-Bio. ARF cells expressing FFAR1 (mouse and human) were thawed, washed and then plated in the appropriate medium (F12 based medium for CHO hFFAR1 and DMEM based medium for HEK293 mFFAR1—both were supplemented with 10% FBS and penicillin/streptomycin). 20 μL of 3.5×10^5 cells/mL were plated on a Poly D-Lysine coated 384-well white plate. The cells were then incubated for 16 hr at 37° C./5% CO2. After 16 hr the medium was removed and 15 μL of stimulation buffer containing the test compounds was added to the cells. The plates were then incubated for 90 min at 37° C./5% CO2. 5 μL of detection buffer (prepared as described in the IP-one kit) was added to each well and the plates were incubated at RT for 1 hr.
[…] was measured using ClarioSTAR plate reader, calculating the ratio between emissions at 665 nm and 620 nm (HTRF ratio). HTRF ratio for positive (Max) and negative (Min) controls were used to normalize HTRF data and generate values for % activity. EC50 and Max activity values were determined using a standard 4-parameter fit.
On the technique in general: TR-FRET usually uses a lanthanide donor and a delayed reading to cut background.
Broadly, the EC50 is the midpoint of the concentration-response curve. For the compound `COc1cc(-c2cc(C)c(C(=O)Oc3cccc([C@H](CP(C)(=O)O)C4CC4)c3)cc2CN(C(C)C)C(C)C)c(F)cn1` (single isomer, unassigned) [Compound 71a], the EC50 was more than 500 nM.
The figure for `COc1cc(-c2cc(C)c(C(=O)Oc3cccc([C@@H](CP(C)(=O)O)C4CC4)c3)cc2CN(C(C)C)C(C)C)c(F)cn1` (single isomer, unassigned) [Compound 71b] is more than 500 nM; for `COc1ccc(F)c(-c2ccc(C(=O)Oc3cccc([C@@H](CC(=O)O)C4CC4)c3)cc2)c1` [Compound 1, (S)-3-cyclopropyl-3-(3-((2′-fluoro-5′-methoxy-[1,1′-biphenyl]-4-carbonyl)oxy)phenyl) propanoic acid] it is 10 to 100 nM; for `O=C(O)C[C@H](c1cccc(OC(=O)c2ccc(-c3cc(O)ccc3F)cc2)c1)C1CC1` [Compound 2] it is 10 to 100 nM.
The figure for `COc1cc(-c2ccc(C(=O)Oc3cccc([C@@H](CC(=O)O)C4CC4)c3)cc2)c(F)cn1` [Compound 3] is 10 to 100 nM.
The figure for `COc1ccc(F)c(-c2ccc(C(=O)Oc3cccc([C@@H](CC(=O)O)C4CC4)c3)nc2)c1` [Compound 4] is more than 500 nM.
Regarding `COc1ccc(F)c(-c2nocc2C(=O)Oc2cccc([C@@H](CC(=O)O)C3CC3)c2)c1` [Compound 5, (3S)-3-cyclopropyl-3-[3-[3-(2-fluoro-5-methoxy-phenyl)isoxazole-4-carbonyl]oxyphenyl]propanoic acid], the concentration for a half-maximal effect (EC50) is more than 500 nM.
As for `COc1ccc(F)c(-c2ccc(C(=O)Oc3cccc([C@@H](CC(=O)O)C4CC4)c3)c(C)c2)c1` [Compound 6], the EC50 was in the range of 10 to 100 nM.
For `COc1ccc(F)c(-c2cc(C(=O)Oc3cccc([C@@H](CC(=O)O)C4CC4)c3)on2)c1` [Compound 7, (S)-3-cyclopropyl-3-(3-((3-(2-fluoro-5-methoxyphenyl)isoxazole-5-carbonyl)oxy)phenyl)propanoic acid], the EC50 is more than 500 nM.
Compound `CC(c1cc(C(F)(F)F)ccc1C(F)(F)F)N1CCC(C(=O)Oc2cccc([C@@H](CC(=O)O)C3CC3)c2)C1` (stereo partly drawn) [Compound 8, (3S)-3-(3-((1-(1-(2,5-bis(trifluoromethyl)phenyl)ethyl)pyrrolidine-3-carbonyl)oxy)phenyl)-3-cyclopropylpropanoic acid] registered a concentration for a half-maximal effect (EC50) of 10 to 100 nM.
In the case of `CC(c1cc(C(F)(F)F)ccc1C(F)(F)F)N1CCC(C(=O)Oc2cccc([C@@H](CC(=O)O)C3CC3)c2)CC1` (stereo partly shown) [Compound 9], the EC50 is 10 to 100 nM.
The figure for `COc1cc(-c2ccc(C(=O)Oc3cccc([C@@H](CC(=O)O)C4CC4)c3)c(C)c2)c(F)cn1` [Compound 10, (S)-3-cyclopropyl-3-(3-((4-(5-fluoro-2-methoxypyridin-4-yl)-2-methylbenzoyl)oxy)phenyl)propanoic acid] is 100 to 500 nM; for `CCN(Cc1cc(C(=O)Oc2cccc([C@@H](CC(=O)O)C3CC3)c2)c(C)cc1-c1cc(OC)ncc1F)C(C)C` [Compound 11, (S)-3-cyclopropyl-3-(3-((5-((ethyl(isopropyl)amino)methyl)-4-(5-fluoro-2-methoxypyridin-4-yl)-2-methylbenzoyl)oxy)phenyl)propanoic acid] it is 100 to 500 nM; for `CC(c1cc(C(F)(F)F)ccc1C(F)(F)F)N1CC(C)(C(=O)Oc2cccc([C@@H](CC(=O)O)C3CC3)c2)C1` (stereo partly shown) [Compound 12] it is 10 to 100 nM.
In the case of `CCN(Cc1cc(-c2cc(OC)ncc2F)ccc1C(=O)Oc1cccc([C@@H](CC(=O)O)C2CC2)c1)C(C)C` [Compound 13], the EC50 is more than 500 nM.
The figure for `COc1cc(-c2ccc(C(=O)Oc3cccc([C@H](C4CC4)[C@H](C)C(=O)O)c3)c(C)c2)c(F)cn1` [Compound 14] is not above 10 nM; for `COc1cc(-c2cc(F)c(C(=O)Oc3cccc([C@@H](CC(=O)O)C4CC4)c3)cc2CN(C(C)C)C(C)C)ccn1` [Compound 16, (S)-3-cyclopropyl-3-(3-((5-((diisopropylamino)methyl)-2-fluoro-4-(2-methoxypyridin-4-yl)benzoyl)oxy)phenyl)propanoic acid] it is not above 10 nM.
The figure for `COc1cc(-c2ccc(C(=O)Oc3cccc([C@@H](CC(=O)O)C4CC4)c3)c(F)c2)ccn1` [Compound 17] is 100 to 500 nM; for `COc1cc(-c2cc(C)c(C(=O)Oc3cccc([C@@H](CC(=O)O)C4CC4)c3)c(F)c2)ccn1` [Compound 18] it is 100 to 500 nM; for `COc1cc(-c2cc(C)c(C(=O)Oc3cccc([C@@H](CC(=O)O)C4CC4)c3)cc2CN(C(C)C)C(C)C)c(F)cn1` [Compound 19] it is 10 to 100 nM.
For `CC(c1cc(C(F)(F)F)ccc1C(F)(F)F)N1CCN(C(=O)Oc2cccc([C@@H](CC(=O)O)C3CC3)c2)CC1` (stereo partly drawn) [Compound 20, (3S)-3-(3-((4-(1-(2,5-bis(trifluoromethyl)phenyl)ethyl)piperazine-1-carbonyl)oxy)phenyl)-3-cyclopropylpropanoic acid], the EC50 is 10 to 100 nM.
`COc1cc(-c2cc(C)c(C(=O)Oc3cccc([C@H](C4CC4)[C@H](C)C(=O)O)c3)cc2CN(C(C)C)C(C)C)c(F)cn1` [Compound 21, (2S,3R)-3-cyclopropyl-3-(3-((5-((diisopropylamino)methyl)-4-(5-fluoro-2-methoxypyridin-4-yl)-2-methylbenzoyl)oxy)phenyl)-2-methylpropanoic acid]: the EC50 is not above 10 nM.
Regarding `CC(c1cc(C(F)(F)F)ccc1C(F)(F)F)N1CCC(C(=O)Oc2cccc([C@H](C3CC3)[C@H](C)C(=O)O)c2)CC1` (stereo partly drawn) [Compound 22, (2S,3R)-3-(3-((1-(1-(2,5-bis(trifluoromethyl)phenyl)ethyl)piperidine-4-carbonyl)oxy)phenyl)-3-cyclopropyl-2-methylpropanoic acid], the EC50 was not above 10 nM.
The figure for `COc1cc(-c2cnc(C(=O)Oc3cccc([C@@H](CC(=O)O)C4CC4)c3)cn2)c(F)cn1` [Compound 23] is more than 500 nM.
In the case of `COc1cc(-c2cc(F)c(C(=O)Oc3cccc([C@H](C4CC4)[C@H](C)C(=O)O)c3)cc2CN(C(C)C)C(C)C)ccn1` [Compound 24], the EC50 was not above 10 nM.
Compound `COc1cc(-c2ccc(C(=O)Oc3cccc([C@H](C4CC4)[C@H](C)C(=O)O)c3)cc2)c(F)cn1` [Compound 25] had an EC50 not above 10 nM.
The compound `COc1cc(-c2ccc(C(=O)Oc3cccc([C@H](C4CC4)[C@H](C)C(=O)O)c3)cc2)ccn1` [Compound 27] had an EC50 not above 10 nM.
The figure for `COc1cc(-c2ccc(C(=O)Oc3cccc([C@H](C4CC4)[C@H](C)C(=O)O)c3)cc2CN(C(C)C)C(C)C)ccn1` [Compound 28] is not above 10 nM; for `COc1cc(-c2ccc(C(=O)Oc3cccc([C@H](C4CC4)[C@H](C)C(=O)O)c3)c(C)c2)ccn1` [Compound 29] it is not above 10 nM; for `CCN(Cc1cc(C(=O)Oc2cccc([C@H](C3CC3)[C@H](C)C(=O)O)c2)ccc1-c1cc(OC)ccc1F)C(C)C` [Compound 30] it is not above 10 nM.
The figure for `COc1ccc(C(=O)N(CC(C)(C)C)c2cccc(C)n2)c(-c2ccc(C(=O)Oc3cccc([C@H](C4CC4)[C@H](C)C(=O)O)c3)c(C)c2)c1` [Compound 31, (2S,3R)-3-cyclopropyl-3-(3-((5′-methoxy-3-methyl-2′-((6-methylpyridin-2-yl)(neopentyl)carbamoyl)-[1,1′-biphenyl]-4-carbonyl)oxy)phenyl)-2-methylpropanoic acid] is not above 10 nM.
The figure for `COc1cc(-c2ccc(C(=O)Oc3cccc([C@H](C4CC4)[C@H](C)C(=O)O)c3)cc2CN2CCCC2(C)C)c(F)cn1` [Compound 32] is not above 10 nM; for `COc1cc(-c2ccc(C(=O)Oc3cccc([C@H](C4CC4)[C@H](C)C(=O)O)c3)cc2CN2CCC(C)(C)C2)c(F)cn1` [Compound 33, (2S,3R)-3-cyclopropyl-3-[3-[3-[(3,3-dimethylpyrrolidin-1-yl)methyl]-4-(5-fluoro-2-methoxy-4-pyridyl)benzoyl]oxyphenyl]-2-methyl-propanoic acid] it is not above 10 nM; for `CCN(Cc1cc(C(=O)Oc2cccc([C@H](C3CC3)[C@H](C)C(=O)O)c2)ccc1-c1cc(OC)ncc1F)C(C)C` [Compound 34, (2S,3R)-3-cyclopropyl-3-(3-((3-((ethyl(isopropyl)amino)methyl)-4-(5-fluoro-2-methoxypyridin-4-yl)benzoyl)oxy)phenyl)-2-methylpropanoic acid] it is not above 10 nM.
As to `COc1cc(-c2ccc(C(=O)Oc3cccc([C@H](C4CC4)[C@H](C)C(=O)O)c3)cc2CN(C[C@H](O)[C@@H](O)[C@H](O)[C@H](O)CO)C(C)C)c(F)cn1` [Compound 35, (2S,3R)-3-cyclopropyl-3-(3-((4-(5-fluoro-2-methoxypyridin-4-yl)-3-((isopropyl((2S,3R,4R,5R)-2,3,4,5,6-pentahydroxyhexyl)amino)methyl)benzoyl)oxy)phenyl)-2-methylpropanoic acid], the concentration for a half-maximal effect (EC50) was more than 500 nM.
Compound `CCN(Cc1cc(C(=O)Oc2cccc([C@H](C3CC3)[C@@](C)(F)C(=O)O)c2)ccc1-c1cc(OC)ncc1F)C(C)C` [Compound 37] showed an EC50 not above 10 nM.
Take `CCN(Cc1cc(C(=O)Oc2cccc([C@H](C3CC3)[C@@](C)(F)C(=O)O)c2)ccc1-c1cc(OC)ccc1F)C(C)C` [Compound 38]: the EC50 was not above 10 nM.
